Measurements taken from patent US6818653B1, “6,7-Disubstituted -5,8-quinolinedione derivatives as an antifungal agent” (Il Jin Copper Foil Corp., priority 2002, dated 2004).
≈ marks a conversion by molar mass, not a printed value. Where two headings read alike, the source gives them in different places.

What was measured:
C. albicans = assay: ED50 in rats infected with C. albicans via tail vein; type: in vivo, rat; conditions: for ED50: Candida albicans, read-out: ED50 ± SD (n = 5)
Experimental: C. albicans (1×10^7) isolated was inoculated to Sabouraud's agar, suspended in a physiological saline solution, and injected into tail vein of a rat. Strains to kill a rat within 48 hours were selected. C. albicans (2×10^6 which is concentration to kill a rat within 48 hours) suspended in a physiological saline solution was injected and infected into tail veins of 125 rats. Each concentration (10, 2, 0.5, 0.1, 0.025 mg/kg) of the compounds of table 3 was administered to each 10 rats. After infecting with Candida strain, each compound was administered to each 10 rats. Fluconazol as a control drug was also administered with 10, 2, 0.5 and 0.1 mg/kg of concentrations. A physiological saline solution containing 0.2% tween 20 was administered as a control group.

[1] = tested on: Candida albicans ATCC10231; assay: MIC by solid medium dilution method; type: cell-based; conditions: Sabouraud's agar, 3 days at 30° C.; for MIC: Candida albicans, ATCC10231, 72 h
Experimental: (§1) The minimum inhibitory concentration (MIC), which indicates the lowest concentration of the active ingredient in the growth medium, was determined by solid medium dilution method. Pathogens strains used are Candida albicans ATCC10231, Candida glabrata ATCC2001, Candida tropicalis ATCC8775, Candida parasilosis ATCC22019, Cryptococuss neoformans KCTC7223.
(§2) 4 mg of a test compound was dissolved in 2 ml of dimethylfulfoxide(DMSO) to produce solutions having a concentration of 2 mg/ml for use and serial two-fold dilution was prepared. The test medium was Sabouraud's agar. 50 μl aliquot of serial two-fold dilution was added to 1 ml of agar medium in 10×1.2 cm petri dishes to be 100, 50, 25, 12.5 6.3, 1.6, and 0.8 μg/ml of test compound concentration and the slant was prepared by tilting the petri dishes. The MIC value without containing a test compound was determined in order to test an effect of a solvent to an antifungal activity. Hyphae with a diameter of 2 mm were inoculated with 2×10^5 CFU. After the medium was cultured for 3 days at 30° C., the MIC values were determined. Control drugs were fluconazole and ketoconazole.

[2] = tested on: Candida tropicalis ATCC8775; assay: MIC by solid medium dilution method; type: cell-based; conditions: Sabouraud's agar, 3 days at 30° C.; for MIC: Candida tropicalis, ATCC8775, 72 h, read-out: MIC C. tropicallis
Experimental: as §1, §2

[3] = tested on: Candida glabrata ATCC2001; assay: MIC by solid medium dilution method; type: cell-based; conditions: Sabouraud's agar, 3 days at 30° C.; for MIC: Nakaseomyces glabratus, ATCC2001, 72 h
Experimental: as §1, §2

[4] = tested on: Candida parasilosis ATCC22019; assay: MIC by solid medium dilution method; type: cell-based; conditions: Sabouraud's agar, 3 days at 30° C.; for MIC: 72 h, read-out: MIC C. parapsilosis
Experimental: as §1, §2

[5] = tested on: Cryptococuss neoformans KCTC7223; assay: MIC by solid medium dilution method; type: cell-based; conditions: Sabouraud's agar, 3 days at 30° C.; for MIC: Cryptococcus neoformans, KCTC7223, 72 h
Experimental: as §1, §2

[6] = rat infected with C. albicans 2×10^6 via tail vein

Row | Compound | ED50 (C. albicans; [6]) | MIC [1] | MIC [2] | MIC [3] | MIC [4] | MIC [5] | ED50 (C. albicans) | ED50 ± SD (n = 5) (C. albicans; [6]) | MIC C. albicans [1] | MIC C. tropicallis [2] | MIC C. glabrata [3] | MIC C. parapsilosis [4] | MIC C. neoformans [5]
1 | OC(Cn1cncn1)(Cn1cncn1)c1ccc(F)cc1F [Fluconazole, fluconazole, reference compound] | 6 mg/kg | 25 µg/mL (≈ 81.6 µM) | 100 µg/mL (≈ 327 µM) | 25 µg/mL (≈ 81.6 µM) | 12.5 µg/mL (≈ 40.8 µM) | 25 µg/mL (≈ 81.6 µM) | – | – | – | – | – | – | –
2 | CC(=O)N1CCN(c2ccc(OCC3COC(Cn4ccnc4)(c4ccc(Cl)cc4Cl)O3)cc2)CC1 (stereo not drawn) [Ketoconazole, ketoconazole, reference compound] | – | 12.5 µg/mL (≈ 23.5 µM) | 12.5 µg/mL (≈ 23.5 µM) | 12.5 µg/mL (≈ 23.5 µM) | 12.5 µg/mL (≈ 23.5 µM) | 12.5 µg/mL (≈ 23.5 µM) | – | – | – | – | – | – | –
3 | CCCCCCCCCSC1=C(Cl)C(=O)c2ncccc2C1=O [compound 20, 6-n-nonylmercapto-7-chloro-5,8-quinolindion] | – | 50 µg/mL (≈ 142 µM) | 6.3 µg/mL (≈ 17.9 µM) | 50 µg/mL (≈ 142 µM) | 25 µg/mL (≈ 71 µM) | 25 µg/mL (≈ 71 µM) | – | – | – | – | – | – | –
4 | CCCSC1=C(Cl)C(=O)c2ncccc2C1=O [compound 14, 6-n-propylmercapto-7-chloro-5,8-quinolindion] | – | 12.5 µg/mL (≈ 46.7 µM) | 50 µg/mL (≈ 187 µM) | 50 µg/mL (≈ 187 µM) | 12.5 µg/mL (≈ 46.7 µM) | 3.2 µg/mL (≈ 12 µM) | – | – | – | – | – | – | –
5 | N#CSC1=C(Nc2ccc(Cl)cc2)C(=O)c2cccnc2C1=O [compound 10, 6-[(N-4-chlorophenyl)amino]-7-thiocyano-5,8-quinolindion] | – | 12.5 µg/mL (≈ 36.6 µM) | 12.5 µg/mL (≈ 36.6 µM) | 12.5 µg/mL (≈ 36.6 µM) | 100 µg/mL (≈ 293 µM) | 6.3 µg/mL (≈ 18.4 µM) | – | – | – | – | – | – | –
6 | CCCCSC1=C(Cl)C(=O)c2ncccc2C1=O [compound 15, 6-n-butylmercapto-7-chloro-5,8-quinolindion] | – | 25 µg/mL (≈ 88.7 µM) | 100 µg/mL (≈ 355 µM) | 12.5 µg/mL (≈ 44.4 µM) | 25 µg/mL (≈ 88.7 µM) | 12.5 µg/mL (≈ 44.4 µM) | – | – | – | – | – | – | –
7 | CCCCCCCSC1=C(Cl)C(=O)c2ncccc2C1=O [compound 18, 6-n-heptylmercapto-7-chloro-5,8-quinolindion] | – | 6.3 µg/mL (≈ 19.5 µM) | 12.5 µg/mL (≈ 38.6 µM) | 50 µg/mL (≈ 154 µM) | 6.3 µg/mL (≈ 19.5 µM) | 12.5 µg/mL (≈ 38.6 µM) | – | – | – | – | – | – | –
8 | N#CSC1=C(Nc2ccc(Br)cc2)C(=O)c2cccnc2C1=O [compound 9, 6-[(N-4-bromophenyl)amino]-7-thiocyano-5,8-quinolindion] | – | < 0.8 µg/mL | < 0.8 µg/mL | 6.3 µg/mL (≈ 16.3 µM) | < 0.8 µg/mL | 3.2 µg/mL (≈ 8.29 µM) | – | – | – | – | – | – | –
9 | O=C1C(Nc2ccc(Cl)cc2)=C(Br)C(=O)c2ncccc21 [Compound No. 1, 6-[(N-4-chlorophenyl)amino]-7-bromo-5,8-quinolindion] | – | 6.3 µg/mL (≈ 17.3 µM) | 12.5 µg/mL (≈ 34.4 µM) | 12.5 µg/mL (≈ 34.4 µM) | 25 µg/mL (≈ 68.8 µM) | 12.5 µg/mL (≈ 34.4 µM) | 0.06 mg/kg | – | – | – | – | – | –
10 | O=C1C(Nc2cc(Cl)cc(Cl)c2)=C(Cl)C(=O)c2ncccc21 [Compound No. 2, 6-[(N-3,5-dichlorophenyl)amino]-7-chloro-5,8-quinolindion] | – | – | – | – | – | – | – | 0.07 mg/kg | 12.5 µg/mL (≈ 35.4 µM) | 25.0 µg/mL (≈ 70.7 µM) | 12.5 µg/mL (≈ 35.4 µM) | 6.3 µg/mL (≈ 17.8 µM) | 12.5 µg/mL (≈ 35.4 µM)
11 | CSC1=C(Nc2ccc(F)c(F)c2F)C(=O)c2cccnc2C1=O [compound 5, 6-[(N-2,3,4-trifulorophenyl)amino]-7-methylmercapto-5,8-quinolindion] | – | – | – | – | – | – | – | – | 1.6 µg/mL (≈ 4.57 µM) | 3.2 µg/mL (≈ 9.13 µM) | 3.2 µg/mL (≈ 9.13 µM) | 25.0 µg/mL (≈ 71.4 µM) | 6.3 µg/mL (≈ 18 µM)
12 | CCCCCSC1=C(Cl)C(=O)c2ncccc2C1=O [compound 16, 6-n-pentylmercapto-7-chloro-5,8-quinolindion] | – | 3.2 µg/mL (≈ 10.8 µM) | 50 µg/mL (≈ 169 µM) | 12.5 µg/mL (≈ 42.3 µM) | 6.3 µg/mL (≈ 21.3 µM) | 25 µg/mL (≈ 84.5 µM) | – | – | – | – | – | – | –
13 | 6-n-hecxylmercapto-7-chloro-5,8-quinolindion [compound 17] | – | – | – | – | – | – | – | – | 25 µg/mL | 50 µg/mL | 50 µg/mL | 25 µg/mL | 12.5 µg/mL
14 | CCSC1=C(Cl)C(=O)c2ncccc2C1=O [compound 13, 6-n-ethylmercapto-7-chloro-5,8-quinolindion] | – | – | – | – | – | – | – | – | 12.5 µg/mL (≈ 49.3 µM) | 100 µg/mL (≈ 394 µM) | 50 µg/mL (≈ 197 µM) | 3.2 µg/mL (≈ 12.6 µM) | 6.3 µg/mL (≈ 24.8 µM)
15 | CCCCCCCCSC1=C(Cl)C(=O)c2ncccc2C1=O [compound 19, 6-n-octylmercapto-7-chloro-5,8-quinolindion] | – | 12.5 µg/mL (≈ 37 µM) | 12.5 µg/mL (≈ 37 µM) | 25 µg/mL (≈ 74 µM) | 3.2 µg/mL (≈ 9.47 µM) | 12.5 µg/mL (≈ 37 µM) | – | – | – | – | – | – | –
16 | CC(=O)c1ccc(NC2=C(Cl)C(=O)c3ncccc3C2=O)cc1 [Compound No. 4, 6-[(N-4-acetophenyl)amino]-7-chloro-5,8-quinolindion] | – | – | – | – | – | – | – | – | 1.6 µg/mL (≈ 4.9 µM) | 3.2 µg/mL (≈ 9.79 µM) | 3.2 µg/mL (≈ 9.79 µM) | 6.3 µg/mL (≈ 19.3 µM) | 12.5 µg/mL (≈ 38.3 µM)
17 | CSC1=C(Nc2ccc(I)cc2)C(=O)c2cccnc2C1=O [compound 7, 6-[(N-4-iodophenyl)amino]-7-methylmercapto-5,8-quinolindion] | – | 6.3 µg/mL (≈ 14.9 µM) | 3.2 µg/mL (≈ 7.58 µM) | 3.2 µg/mL (≈ 7.58 µM) | 25 µg/mL (≈ 59.2 µM) | 3.2 µg/mL (≈ 7.58 µM) | – | – | – | – | – | – | –
18 | CC(=O)c1ccc(NC2=C(SC#N)C(=O)c3ncccc3C2=O)cc1 [compound 11, 6-[(N-4-acetophenyl)amino]-7-thiocyano-5,8-quinolindion] | – | – | – | – | – | – | – | – | 6.3 µg/mL (≈ 18 µM) | 3.2 µg/mL (≈ 9.16 µM) | 25 µg/mL (≈ 71.6 µM) | 3.2 µg/mL (≈ 9.16 µM) | <0.8 µg/mL
19 | N#CSC1=C(Nc2cc(F)cc(F)c2)C(=O)c2cccnc2C1=O [compound 12, 6-[(N-3,5-difulorophenyl)amino]-7-thiocyano-5,8-quinolindion] | – | – | – | – | – | – | – | – | 12.5 µg/mL (≈ 36.4 µM) | 3.2 µg/mL (≈ 9.32 µM) | 12.5 µg/mL (≈ 36.4 µM) | 1.6 µg/mL (≈ 4.66 µM) | <0.8 µg/mL
20 | O=C1C(Nc2ccc(Br)cc2)=C(Br)C(=O)c2ncccc21 [Compound No. 3, 6-[(N-4-bromophenyl)amino]-7-bromo-5,8-quinolindion] | – | 6.3 µg/mL (≈ 15.4 µM) | 12.5 µg/mL (≈ 30.6 µM) | 6.3 µg/mL (≈ 15.4 µM) | 25 µg/mL (≈ 61.3 µM) | 6.3 µg/mL (≈ 15.4 µM) | 0.06 mg/kg | – | – | – | – | – | –
21 | N#CSC1=C(Nc2ccc(I)cc2)C(=O)c2cccnc2C1=O [compound 8, 6-[(N-4-iodophenyl)amino]-7-thiocyano-5,8-quinolindion] | – | 12.5 µg/mL (≈ 28.9 µM) | 12.5 µg/mL (≈ 28.9 µM) | 12.5 µg/mL (≈ 28.9 µM) | 100 µg/mL (≈ 231 µM) | 12.5 µg/mL (≈ 28.9 µM) | – | – | – | – | – | – | –
22 | CSC1=C(Nc2ccc(Cl)cc2)C(=O)c2cccnc2C1=O [compound 6, 6-[(N-4-chlorophenyl)amino]-7-methylmercapto-5,8-quinolindion] | – | 12.5 µg/mL (≈ 37.8 µM) | < 0.8 µg/mL | 6.3 µg/mL (≈ 19 µM) | 25 µg/mL (≈ 75.6 µM) | 12.5 µg/mL (≈ 37.8 µM) | – | – | – | – | – | – | –
